We go through 34 molecules from patent publication US8741934B2, “Inhibitors of ion channels” (Pfizer Limited, priority 2007, dated 2014).

Read-outs that look alike come from different tables or passages of the source. Bounds are passed on as bounds.

In the experiment the target is T1, hSCN3A sodium channels (Homo sapiens, UniProt Q9NY46).
T1 construct: expressed in transfected cells
As to the kind of experiment: hSCN3A electrophysiology, whole-cell patch-clamp or PatchXpress 7000, estimated IC-50 (Table B). In kind it is cell-based. The procedure, abridged: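 Stably transfected HEK cells, whole-cell voltage clamp at 22-24° C, manual or PatchXpress 7000. Cells held at empirically determined inactivation V1/2; current evoked by 20 msec step to 0 mV after 8 sec prepulse to V1/2.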

[1] abbreviates: estimated IC-50, hSCN3A cells, whole-cell patch-clamp or PatchXpress 7000, read-out: SCN3A EIC-50.

T1 sequence (Q9NY46 whole entry): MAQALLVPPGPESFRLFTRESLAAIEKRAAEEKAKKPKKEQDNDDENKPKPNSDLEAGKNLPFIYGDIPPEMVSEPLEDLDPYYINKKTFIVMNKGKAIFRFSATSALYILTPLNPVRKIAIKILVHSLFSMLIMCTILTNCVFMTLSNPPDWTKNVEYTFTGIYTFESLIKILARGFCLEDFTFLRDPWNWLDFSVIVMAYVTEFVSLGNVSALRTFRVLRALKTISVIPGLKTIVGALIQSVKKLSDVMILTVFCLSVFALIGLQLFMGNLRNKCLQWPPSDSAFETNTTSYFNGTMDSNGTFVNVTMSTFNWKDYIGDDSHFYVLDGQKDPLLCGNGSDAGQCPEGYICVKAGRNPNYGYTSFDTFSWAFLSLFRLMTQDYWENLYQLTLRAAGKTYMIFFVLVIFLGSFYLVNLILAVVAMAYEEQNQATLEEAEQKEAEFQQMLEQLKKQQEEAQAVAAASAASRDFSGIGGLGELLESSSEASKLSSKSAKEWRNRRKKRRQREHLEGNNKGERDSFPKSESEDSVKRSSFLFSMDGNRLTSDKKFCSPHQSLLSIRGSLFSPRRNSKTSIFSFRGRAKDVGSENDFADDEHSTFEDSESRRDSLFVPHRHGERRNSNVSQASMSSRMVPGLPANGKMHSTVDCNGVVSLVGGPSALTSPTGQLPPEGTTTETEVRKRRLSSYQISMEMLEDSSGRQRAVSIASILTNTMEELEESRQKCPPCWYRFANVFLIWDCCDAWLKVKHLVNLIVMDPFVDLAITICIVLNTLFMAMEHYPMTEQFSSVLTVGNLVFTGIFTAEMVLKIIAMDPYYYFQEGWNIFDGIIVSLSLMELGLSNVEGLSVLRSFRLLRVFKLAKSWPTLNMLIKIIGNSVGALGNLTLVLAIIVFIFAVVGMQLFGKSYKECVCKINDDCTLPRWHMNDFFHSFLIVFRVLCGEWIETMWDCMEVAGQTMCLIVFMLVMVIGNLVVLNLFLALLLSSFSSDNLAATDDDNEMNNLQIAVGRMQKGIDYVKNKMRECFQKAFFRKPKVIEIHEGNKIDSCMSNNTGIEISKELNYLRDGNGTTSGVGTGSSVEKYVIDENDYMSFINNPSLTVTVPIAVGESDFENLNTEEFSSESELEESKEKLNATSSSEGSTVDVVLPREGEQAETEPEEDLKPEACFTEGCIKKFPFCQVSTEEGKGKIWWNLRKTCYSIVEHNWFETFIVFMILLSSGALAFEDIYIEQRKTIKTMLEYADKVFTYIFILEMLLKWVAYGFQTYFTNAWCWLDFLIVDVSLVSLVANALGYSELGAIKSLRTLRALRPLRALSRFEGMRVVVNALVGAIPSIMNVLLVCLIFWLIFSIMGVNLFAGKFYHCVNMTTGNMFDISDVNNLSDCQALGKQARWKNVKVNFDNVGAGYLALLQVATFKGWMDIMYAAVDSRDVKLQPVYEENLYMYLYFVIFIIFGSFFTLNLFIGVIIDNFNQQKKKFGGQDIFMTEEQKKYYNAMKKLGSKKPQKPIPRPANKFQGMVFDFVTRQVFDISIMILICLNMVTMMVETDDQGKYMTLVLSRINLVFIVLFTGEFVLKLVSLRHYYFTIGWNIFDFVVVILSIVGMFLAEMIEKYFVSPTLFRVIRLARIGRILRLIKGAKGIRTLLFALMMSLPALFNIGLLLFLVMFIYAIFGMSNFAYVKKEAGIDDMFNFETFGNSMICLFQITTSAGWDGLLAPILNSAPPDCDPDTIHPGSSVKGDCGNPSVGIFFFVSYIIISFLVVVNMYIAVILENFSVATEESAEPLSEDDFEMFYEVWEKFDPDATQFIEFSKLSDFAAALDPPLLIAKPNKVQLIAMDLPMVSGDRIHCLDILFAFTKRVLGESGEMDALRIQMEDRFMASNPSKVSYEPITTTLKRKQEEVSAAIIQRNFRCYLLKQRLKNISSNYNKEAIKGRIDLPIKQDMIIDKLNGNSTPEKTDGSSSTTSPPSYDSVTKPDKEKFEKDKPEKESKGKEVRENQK

As for `N#Cc1cc(S(=O)(=O)Nc2ncc(Cl)s2)ccc1C(=O)NCc1ccc(C(F)(F)F)cc1` [Example 347, 4-{[(5-Chloro-1,3-thiazol-2-yl)amino]sulfonyl}-2-cyano-N-[4-(trifluoromethyl)benzyl]benzamide], the IC50 under setting [1] is 1620 nM. On to `N#Cc1cc(S(=O)(=O)Nc2ncc(Cl)s2)ccc1C(=O)NCc1ccc(C(F)(F)F)c(F)c1` [Example 348, 4-{[(5-Chloro-1,3-thiazol-2-yl)amino]sulfonyl}-2-cyano-N-[3-fluoro-4-(trifluoromethyl)benzyl]benzamide], for which the IC50 under setting [1] was 1580 nM. Same read-out and setting: the value for `O=C(NCc1ccc(C(F)(F)F)cc1)c1cccc(S(=O)(=O)Nc2nccs2)c1` [Example 349, 3-[(1,3-Thiazol-2-ylamino)sulfonyl]-N-[4-(trifluoromethyl)benzyl]benzamide] was 9870 nM. With `O=C(NCc1ccc(C(F)(F)F)cc1)c1cccc(S(=O)(=O)Nc2nncs2)c1` [Example 350, 3-[(1,3,4-Thiadiazol-2-ylamino)sulfonyl]-N-[4-(trifluoromethyl)benzyl]benzamide], the IC50 is over 10000 nM. As to `O=C(NCc1ccc(C(F)(F)F)cc1)c1ccc(S(=O)(=O)Nc2ncc(Cl)s2)cc1F` [Example 352, 4-{[(5-Chloro-1,3-thiazol-2-yl)amino]sulfonyl}-2-fluoro-N-[4-(trifluoromethyl)benzyl]benzamide], the IC50 under setting [1] was 200 nM. As for `O=C(NCc1ccc(F)c(C(F)(F)F)c1)c1ccc(S(=O)(=O)Nc2ncc(Cl)s2)cc1F` [Example 353, 4-{[(5-Chloro-1,3-thiazol-2-yl)amino]sulfonyl}-2-fluoro-N-[4-fluoro-3-(trifluoromethyl)benzyl]benzamide], under setting [1], the IC50 was 220 nM. Consider `O=C(NCc1cccc(C(F)(F)F)c1)c1ccc(S(=O)(=O)Nc2ncc(Cl)s2)cc1F` [Example 354, 4-{[(5-Chloro-1,3-thiazol-2-yl)amino]sulfonyl}-2-fluoro-N-[3-(trifluoromethyl)benzyl]benzamide], for which, under setting [1], the IC50 is 210 nM. In the case of `O=C(NCc1ccc(Cl)c(F)c1)c1ccc(S(=O)(=O)Nc2ncc(Cl)s2)cc1F` [Example 355, N-(4-chloro-3-fluorobenzyl)-4-{[(5-chloro-1,3-thiazol-2-yl)amino]sulfonyl}-2-fluorobenzamide], under setting [1], the IC50 is 150 nM. As for `O=C(NCc1ccc(C(F)(F)F)c(F)c1)c1ccc(S(=O)(=O)Nc2ncc(Cl)s2)cc1F` [Example 356, 4-{[(5-Chloro-1,3-thiazol-2-yl)amino]sulfonyl}-2-fluoro-N-[3-fluoro-4-(trifluoromethyl)benzyl]benzamide], under setting [1], the IC50 was 210 nM.

As for `O=C(NCc1cccc(OC(F)(F)F)c1)c1ccc(S(=O)(=O)Nc2ncc(Cl)s2)cc1F` [Example 357, 4-{[(5-Chloro-1,3-thiazol-2-yl)amino]sulfonyl}-2-fluoro-N-[3-(trifluoromethoxy)benzyl]benzamide], the IC50 under setting [1] was 190 nM. On the same count and under the same terms, with `O=C(NCc1ccc(F)c(OC(F)(F)F)c1)c1ccc(S(=O)(=O)Nc2ncc(Cl)s2)cc1F` [Example 358, 4-{[(5-Chloro-1,3-thiazol-2-yl)amino]sulfonyl}-2-fluoro-N-[4-fluoro-3-(trifluoromethoxy)benzyl]benzamide] the figure was 370 nM. Same read-out and setting: with `O=C(NCc1ccc(OC(F)(F)F)c(F)c1)c1ccc(S(=O)(=O)Nc2ncc(Cl)s2)cc1F` [Example 359, 4-{[(5-Chloro-1,3-thiazol-2-yl)amino]sulfonyl}-2-fluoro-N-[3-fluoro-4-(trifluoromethoxy)benzyl]benzamide] the figure was 170 nM; with `O=C(NCc1ccc(OC(F)(F)F)cc1)c1ccc(S(=O)(=O)Nc2ncc(Cl)s2)cc1F` [Example 360, 4-{[(5-Chloro-1,3-thiazol-2-yl)amino]sulfonyl}-2-fluoro-N-[4-(trifluoromethoxy)benzyl]benzamide], 160 nM; with `O=C(NCc1ccc(F)c(F)c1)c1ccc(S(=O)(=O)Nc2ncc(Cl)s2)cc1F` [Example 361, 4-{[(5-Chloro-1,3-thiazol-2-yl)amino]sulfonyl}-N-(3,4-difluorobenzyl)-2-fluorobenzamide], 310 nM. The same measure, in the same setting: with `O=C(NCc1ccc(OC(F)(F)F)cc1)c1ccc(S(=O)(=O)Nc2ncc(Cl)s2)c(Cl)c1` [Example 362, 3-Chloro-4-{[(5-chloro-1,3-thiazol-2-yl)amino]sulfonyl}-N-[4-(trifluoromethoxy)benzyl]benzamide] the figure was 1090 nM. Consider `O=C(NCc1ccc(F)c(Cl)c1)c1ccc(S(=O)(=O)Nc2ncc(Cl)s2)c(Cl)c1` [Example 363, 3-Chloro-N-(3-chloro-4-fluorobenzyl)-4-{[(5-chloro-1,3-thiazol-2-yl)amino]sulfonyl} benzamide], for which, under setting [1], the IC50 is 1200 nM. Same read-out and setting: with `O=C(NCc1cccc(OC(F)(F)F)c1)c1ccc(S(=O)(=O)Nc2ncc(Cl)s2)c(Cl)c1` [Example 364, 3-Chloro-4-{[(5-chloro-1,3-thiazol-2-yl)amino]sulfonyl}-N-[3-(trifluoromethoxy)benzyl]benzamide] the figure was 2180 nM. For `O=C(NCc1ccc(OC(F)(F)F)c(F)c1)c1ccc(S(=O)(=O)Nc2ncc(Cl)s2)c(Cl)c1` [Example 365, 3-Chloro-4-{[(5-chloro-1,3-thiazol-2-yl)amino]sulfonyl}-N-[3-fluoro-4-(trifluoromethoxy)benzyl]benzamide], the IC50 under setting [1] was 600 nM. The same measure, in the same setting: with `O=C(NCc1ccc(C(F)(F)F)c(F)c1)c1ccc(S(=O)(=O)Nc2ncc(Cl)s2)c(Cl)c1` [Example 366, 3-Chloro-4-{[(5-chloro-1,3-thiazol-2-yl)amino]sulfonyl}-N-[3-fluoro-4-(trifluoromethyl)benzyl] benzamide] the figure was 730 nM. For the molecule `O=C(NCc1ccc(F)c(OC(F)(F)F)c1)c1ccc(S(=O)(=O)Nc2ncc(Cl)s2)c(Cl)c1` [Example 367, 3-Chloro-4-{[(5-chloro-1,3-thiazol-2-yl)amino]sulfonyl}-N-[4-fluoro-3-(trifluoromethoxy)benzyl]benzamide], under setting [1], the IC50 was 1510 nM.

`O=C(NCc1ccc(Cl)c(Cl)c1)c1ccc(S(=O)(=O)Nc2ncc(Cl)s2)c(Cl)c1` [Example 368, 3-Chloro-4-{[(5-chloro-1,3-thiazol-2-yl)amino]sulfonyl}-N-(3,4-dichlorobenzyl) benzamide]: the IC50 under setting [1] was 400 nM. On the same count and under the same terms, with `O=C(NCc1ccc(Cl)c(F)c1)c1ccc(S(=O)(=O)Nc2ncc(Cl)s2)c(Cl)c1` [Example 369, 3-Chloro-N-(4-chloro-3-fluorobenzyl)-4-{[(5-chloro-1,3-thiazol-2-yl)amino]sulfonyl} benzamide] the figure was 6170 nM. As for `O=C(NCc1ccc(F)c(C(F)(F)F)c1)c1ccc(S(=O)(=O)Nc2ncc(Cl)s2)c(Cl)c1` [Example 370, 3-Chloro-4-{[(5-chloro-1,3-thiazol-2-yl)amino]sulfonyl}-N-[4-fluoro-3-(trifluoromethyl)benzyl]benzamide], under setting [1], the IC50 is 1220 nM. Take `O=C(NCc1ccc(F)c(F)c1)c1ccc(S(=O)(=O)Nc2ncc(Cl)s2)c(Cl)c1` [Example 371, 3-Chloro-4-{[(5-chloro-1,3-thiazol-2-yl)amino]sulfonyl}-N-(3,4-difluorobenzyl) benzamide]: under setting [1], the IC50 was 1300 nM. In the case of `O=C(NCc1cccc(C(F)(F)F)c1)c1ccc(S(=O)(=O)Nc2ncc(Cl)s2)c(Cl)c1` [Example 372, 3-Chloro-4-{[(5-chloro-1,3-thiazol-2-yl)amino]sulfonyl}-N-[3-(trifluoromethyl)benzyl] benzamide], the IC50 under setting [1] was 2260 nM. Still for that read-out and setting: with `O=C(NCc1ccc(C(F)(F)F)cc1)c1ccc(S(=O)(=O)Nc2ncc(Cl)s2)c(Cl)c1` [Example 373, 3-Chloro-4-{[(5-chloro-1,3-thiazol-2-yl)amino]sulfonyl}-N-[4-(trifluoromethyl)benzyl] benzamide] the figure was 490 nM; with `O=C(NCc1ccc(C(F)(F)F)c(Cl)c1)c1ccc(S(=O)(=O)Nc2ncns2)cc1Cl` [Example 374, 2-Chloro-N-[3-chloro-4-(trifluoromethyl)benzyl]-4-[(1,2,4-thiadiazol-5-ylamino)sulfonyl]benzamide], 230 nM. For the molecule `O=C(NCc1ccc(C(F)(F)F)c(F)c1)c1ccc(S(=O)(=O)Nc2ncns2)cc1Cl` [Example 375, 2-Chloro-N-[3-fluoro-4-(trifluoromethyl)benzyl]-4-[(1,2,4-thiadiazol-5-ylamino)sulfonyl]benzamide], under setting [1], the IC50 is 450 nM. Same read-out and setting: the value for `O=C(NCc1ccc(OC(F)(F)F)c(F)c1)c1ccc(S(=O)(=O)Nc2ncns2)cc1Cl` [Example 376, 2-Chloro-N-[3-fluoro-4-(trifluoromethoxy)benzyl]-4-[(1,2,4-thiadiazol-5-ylamino)sulfonyl] benzamide] was 590 nM.

Turning to `O=C(NCc1ccc(C(F)(F)F)cc1)c1ccc(S(=O)(=O)Nc2ncns2)cc1Cl` [Example 377, 2-Chloro-4-[(1,2,4-thiadiazol-5-ylamino)sulfonyl]-N-[4-(trifluoromethyl)benzyl] benzamide], the IC50 under setting [1] is 850 nM.

On to `O=C(NCc1ccc(OC(F)(F)F)c(Cl)c1)c1ccc(S(=O)(=O)Nc2ncns2)cc1Cl` [Example 378, 2-Chloro-N-[3-chloro-4-(trifluoromethoxy)benzyl]-4-[(1,2,4-thiadiazol-5-ylamino)sulfonyl] benzamide], for which, under setting [1], the IC50 is 180 nM. Still for that read-out and setting: with `Cn1nc(Cc2ccc(Cl)cc2)cc1NC(=O)c1ccc(S(=O)(=O)Nc2ncc(Cl)s2)c(F)c1` [Example 379, N-[3-(4-chlorobenzyl)-1-methyl-1H-pyrazol-5-yl]-4-{[(5-chloro-1,3-thiazol-2-yl)-amino]sulfonyl}-3-fluorobenzamide] the figure was 20 nM; with `O=C(Nc1ccn(Cc2ccc(Cl)cc2)n1)c1ccc(S(=O)(=O)Nc2ncc(Cl)s2)c(F)c1` [Example 380, N-[1-(4-chlorobenzyl)-1H-pyrazol-3-yl]-4-{[(5-chloro-1,3-thiazol-2-yl)amino]sulfonyl}-3-fluorobenzamide], 170 nM; with `O=C(Nc1cnn(Cc2ccc(Cl)cc2)c1)c1ccc(S(=O)(=O)Nc2ncc(Cl)s2)c(F)c1` [Example 381, N-[1-(4-chlorobenzyl)-1H-pyrazol-4-yl]-4-{[(5-chloro-1,3-thiazol-2-yl)amino]sulfonyl}-3-fluorobenzamide], 120 nM.
